Consider seven compounds from patent US5618931A, “Acetylenes disubstituted with a 5 substituted dihydronaphthyl group and with an aryl or heteroaryl group having retinoid-like biological activity” (Allergan, priority 1994, dated 1997).

Some results are limits rather than exact numbers.

In one experiment the test system is ornithine decarboxylase (ODC), TPA-induced activity. Briefly: ODC assay: inhibition of TPA induction of ornithine decarboxylase. In kind it is biochemical. Particulars: concentration of the test compound which causes 80% inhibition in the ODC assay (TPA-induced ODC). An excerpt:
The retinoic acid-like activity of these compounds is confirmed through the classic measure of retinoic acid activity involving the effects of retinoic acid on ornithine decarboxylase. The original work on the correlation between retinoic acid and decrease in cell proliferation was done by Verma & Boutwell, Cancer Research, 1977, 37,2196-2201. That reference discloses that ornithine decarboxylase (ODC) activity increased precedent to polyamine biosynthesis. It has been established elsewhere that increases in polyamine synthesis can be correlated or associated with cellular proliferation. Thus, if ODC activity could be inhibited, cell hyperproliferation could be modulated. Although all cases for ODC activity increases are unknown, it is known that 12-O-tetradecanoylphorbol-13-acetate (TPA) induces ODC activity. […] Activity of exemplary compounds of the present invention in the above-described ODC assay is disclosed in Table 2 which provides the IC80 concentration for the respective exemplary compound. ("IC80 " is that concentration of the test compound which causes 80% inhibition in the ODC assay. By analogy, IC60, for example, is that concentration of the test compound which causes 60% inhibition in the ODC assay.)
Turning to `CCOC(=O)c1ccc(C#Cc2ccc3c(c2)C(OS(=O)(=O)C(F)(F)F)=CCC3(C)C)cc1` [Compound 66, Ethyl 4-[(5-trifluoromethylsulfonyloxy-7,8-dihydro-8,8-dimethylnapth-3-yl)ethynyl]benzoate], the IC80 conc was found to be 17.00 nmols.
Compound `CCOC(=O)c1ccc(C#Cc2ccc3c(c2)C(S(=O)(=O)c2ccccc2)=CCC3(C)C)cc1` [Compound 157, Ethyl 4-[(7,8-dihydro-8,8-dimethyl-5-phenylsulfonylnaphth-3-yl)ethynyl]benzoate] had an IC80 conc of under 0.1 nmols.
In turn, `CCOC(=O)c1ccc(C#Cc2ccc3c(c2)C(Sc2ccccc2)=CCC3(C)C)cc1` [Compound 155, Ethyl 4-[(7,8-dihydro-8,8-dimethyl-5-phenylthionaphth-3yl)ethynyl]benzoate] gave an IC80 conc of 2.3 nmols.
In the case of `CCOC(=O)c1ccc(C#Cc2ccc3c(c2)C(OC(C)=O)=CCC3(C)C)cc1` [Compound 126, Ethyl 4-[(5-acetoxy-7,8-dihydro-8,8-dimethylnaphth-3-yl)ethynyl]benzoate], the IC80 conc came to 0.58 nmols.
The compound `CCOC(=O)c1ccc(C#Cc2ccc3c(c2)C(C)(C)CC=C3OC(C)=O)cc1` [Compound 105, Ethyl 4-[(5-acetoxy-7,8-dihydro-8,8-dimethylnaphth-2-yl)ethynyl]benzoate] returned an IC80 conc of 0.76 nmols.
`CCOC(=O)c1ccc(C#Cc2ccc3c(c2)C(C)(C)CC=C3OS(=O)(=O)C(F)(F)F)cc1` [Compound 87, Ethyl 4-[(5-trifluoromethylsulfonyloxy-7,8-dihydro-8,8-dimethylnaphth-2-yl)ethynyl]benzoate] yielded an IC80 conc of 16.80 nmols.

The test system is the same in another experiment.
Experiment: not given
As to conditions: background statement on retinoic acid; cited from earlier work.
Regarding `CC1=C(/C=C/C(C)=C/C=C/C(C)=C/C(=O)O)C(C)(C)CCC1` [Retinoic acid], the “inhibition of TPA induction of ODC activity (in words)” value is reported as “inhibits this induction of ODC activity by TPA”.
